Among the data in PMC5118696, “Identification of inhibitors that dually target the new permeability pathway and dihydroorotate dehydrogenase in the blood stage of Plasmodium falciparum” (Scientific Reports, 2016) are activity values, retold here.

Read-outs that look alike come from different tables or passages of the source.

Assay [1] deals with Hyp1-NLuc Plasmodium falciparum-infected erythrocytes (new permeability pathway, NPP). Nature of the assay: microbe, parasite or virus in culture. The following applies: Erythrocyte, 0.33 h, read-out: Mean RLU at 28 min (As % of DMSO control).
For assay [2] the test system is unchanged. Nature of the assay: microbe, parasite or virus in culture. Conditions: Erythrocyte, 0.33 h, read-out: % of control remaining.

Regarding `Cc1ccccc1OCCSc1nc2ccc(NC(=O)c3cccs3)cc2s1` [MMV007396], the activity at 2 µM in assay [1] was 104%; in assay [2], 111%.

On to `O=C(NCc1ccco1)C1CCN(S(=O)(=O)c2ccc(Br)cc2)CC1` [MMV007430], for which the activity at 2 µM in assay [1] was determined as 114%; in assay [2], 112%.

On to `COc1cc2c3cc1Oc1c(OC)c(OC)cc4c1C(Cc1ccc(O)c(c1)Oc1ccc(cc1)CC3N(C)CC2)N(C)CC4` (centres unmarked) [MMV007474], for which the results for the activity at 2 µM in assay [1] and in assay [2] were 104% and 103%, respectively.

In the case of `COc1ccc(CCNC(=O)c2cc(S(=O)(=O)N3CC(C)CC(C)C3)ccc2Sc2ccc(F)cc2)cc1OC` (centres unmarked) [MMV007557], the activity at 2 µM in assay [1] was determined as 102%; in assay [2], 106%.

On to `Cc1ccc(Cn2c(N3CCC(C(=O)NCc4cccs4)CC3)nc3ccccc32)cc1` [MMV007564], for which the activity at 2 µM in assay [1] stood at 96.6%; in assay [2] it was 104%.

As for `O=C(Nc1ccc(C23CC4CC(CC(c5ccccc5)(C4)C2)C3)cc1)c1cccs1` [MMV007574], the activity at 2 µM came to 106% in assay [1] and 111% in assay [2].

Take `Cc1ccccc1OCCSc1nc2ccc(NC(=O)c3ccccc3)cc2s1` [MMV007577]: the activity at 2 µM in assay [1] is 97.3%; in assay [2], 98.1%.

As to `COc1ccc(C(=O)C(CCC(CNC(C)(C)C)C(=O)c2ccc(OC)cc2)CNC(C)(C)C)cc1` (centres unmarked) [MMV007591], the activity at 2 µM in assay [1] came out at 103%; in assay [2], 102%.

With `CC(=O)NCCc1nc2ccccc2n1Cc1ccc(C(C)C)cc1` [MMV007617], the values for the activity at 2 µM in assay [1] and in assay [2] were 95.2% and 82.1%, respectively.

As for `Cc1ccc(C)c(-c2csc(Nc3ccc(C)c(C)c3)n2)c1` [MMV007654], the activity at 2 µM in assay [1] came out at 94.4%; in assay [2] it was 91.8%.

With `CCCCCCOC(=O)C1=C(C)NC(=O)NC1c1ccccc1F` (centres unmarked) [MMV007686], the activity at 2 µM was 107% in assay [1] and 105% in assay [2].

Turning to `COc1ccc(C(C)=O)cc1N1C(=O)C2C(C1=O)C1(c3ccccc3)C(=O)C2(c2ccccc2)C(c2ccc(C)cc2)=C1c1ccc(C)cc1` (centres unmarked) [MMV007695], the values for the activity at 2 µM in assay [1] and in assay [2] were 98.9% and 98.4%, respectively.

For `CCCCc1c(CCC)c(=N)c2ccccc2n1C` [MMV007764], the figures for the activity at 2 µM in assay [1] and in assay [2] were 110% and 111%, respectively.

For `CCOc1ccccc1NC(=O)CN1CCN(C(=O)c2ccco2)CC1` [MMV007791], the activity at 2 µM in assay [1] came to 106%; in assay [2], 108%.

Consider `COc1nc(Nc2ccc(C(C)C)cc2)nc(OC)n1` [MMV007808], for which the activity at 2 µM in assay [1] and in assay [2] was 110% in each case.

As to `COc1ccc2c(c1)OC(O)(C(F)(F)C(F)(F)F)CC2=O` (centres unmarked) [MMV007839], the activity at 2 µM in assay [1] was found to be 104%; in assay [2], 93.7%.

With `COc1ccc2nc(C)cc(Nc3ccc(Cl)cc3)c2c1` [MMV007875], the activity at 2 µM in assay [1] is 98.8%; in assay [2], 99.5%.

As for `CCCCN(CCCC)S(=O)(=O)c1ccc(NC(=O)c2ccco2)cc1` [MMV007881], the activity at 2 µM in assay [1] was 104%; in assay [2], 96.9%.

As to `CCCCOc1ccc(C(=O)Nc2cc(C)on2)cc1` [MMV007906], the activity at 2 µM in assay [1] was determined as 117%; in assay [2], 115%.

With `Cc1ccc(Nc2nc(-c3ccccn3)cs2)cc1` [MMV007907], the results for the activity at 2 µM in assay [1] and in assay [2] were 106% and 103%, respectively.

Regarding `O=c1nc(C=Cc2ccc(Cl)cc2)oc2ccccc12` [MMV007977], the activity at 2 µM stood at 110% in assay [1] and 105% in assay [2].

On to `CCOc1ccc(CCNC(=O)c2cccs2)cc1OCC` [MMV007978], for which the activity at 2 µM is 112% in assay [1] and 114% in assay [2].

Turning to `CN1CCN(c2c3c(c(C#N)c4nc5ccccc5n24)CCC3)CC1` [MMV008127], the figures for the activity at 2 µM in assay [1] and in assay [2] were 112% and 111%, respectively.

Consider `O=C(O)C1Cc2c([nH]c3ccccc23)C(c2ccc(Cl)cc2Cl)N1` (centres unmarked) [MMV008138], for which the activity at 2 µM in assay [1] and in assay [2] was 102% throughout.

With `Cc1c(C)n(Cc2ccc(F)cc2)c2ccc(C(=O)NCc3ccco3)cc12` [MMV008149], the activity at 2 µM stood at 102% in assay [1] and 118% in assay [2].

In the case of `CN1C=C(c2ccc3ccccc3n2)C(c2c[nH]c3ccccc23)c2ccccc21` (centres unmarked) [MMV008160], the activity at 2 µM in assay [1] turned out to be 91.7%; in assay [2] it was 86%.

Turning to `COc1cc(OC)cc(N2C(=O)N(Cc3ccc(C(C)(C)C)cc3)c3ccccc3S2(=O)=O)c1` [MMV008173], the activity at 2 µM in assay [1] was determined as 103%; in assay [2], 115%.

In the case of `COc1ccc2nc(C)cc(Nc3cccc(O)c3)c2c1` [MMV008212], the activity at 2 µM in assay [1] was found to be 106%; in assay [2], 107%.

Consider `Oc1c2c(nc3cc(-c4ccccc4)nn13)CCCC2` [MMV008270], for which the results for the activity at 2 µM in assay [1] and in assay [2] were 100% and 56.9%, respectively.

Turning to `CCOC(=O)c1cnc2c(C)cc(C)cc2c1Nc1ccc(OC)c(OC)c1` [MMV008294], the activity at 2 µM was found to be 104% in assay [1] and 97.1% in assay [2].

Turning to `CCCc1c(CC)c(=N)c2ccccc2n1C` [MMV008416], the activity at 2 µM in assay [1] amounted to 98.9%; in assay [2], 100%.

As for `COc1ccc(C2C(C(=O)Nc3cccc(OC)c3)c3ccccc3C(=O)N2C2CCCCC2)cc1` (centres unmarked) [MMV008455], the activity at 2 µM in assay [1] was 107%; in assay [2] it was 115%.

Turning to `CCN1CCN(c2c(C(=O)c3ccccc3)cnc3cc(OC)c(OC)cc23)CC1` [MMV008474], the activity at 2 µM in assay [1] was determined as 97.3%; in assay [2], 102%.

For the compound `CCCn1c(=N)c(C(=O)NC2CCCCC2)cc2c(=O)n3cccc(C)c3nc21` [MMV008829], the activity at 2 µM in assay [1] was determined as 106%; in assay [2], 105%.

Turning to `CCOc1cc2c(cc1OCC)C(c1cc(OC)c(O)cc1Cl)NCC2` (centres unmarked) [MMV008956], the activity at 2 µM in assay [1] was 102%; in assay [2] it was 100%.

With `O=C(CCc1ccccc1)c1ccccc1OCC(O)CN1CCCCC1` (centres unmarked) [MMV009015], the activity at 2 µM in assay [1] came out at 107%; in assay [2], 106%.

In the case of `CCN(CC)c1ccc(NC(=O)c2cccs2)cc1` [MMV009060], the activity at 2 µM in assay [1] is 103%; in assay [2], 111%.

For `OC(CNC1CCCCC1)Cn1c2ccccc2c2ccccc21` (centres unmarked) [MMV009063], the activity at 2 µM is 97% in assay [1] and 92.9% in assay [2].

`O=C1c2ccc3c4c(ccc(c24)C(=O)N1CCCCO)C(=O)N(CCCCO)C3=O` [MMV009085]: the activity at 2 µM in assay [1] was determined as 93.1%; in assay [2], 58.9%.

As for `CCN(CC)S(=O)(=O)c1ccc(-c2csc(Nc3ccc(C)c(C)c3)n2)cc1` [MMV009108], the activity at 2 µM in assay [1] and in assay [2] was 107% each time.

For `CC1CCN(Cc2c(O)ccc3cc(-c4nc5ccccc5s4)c(=O)oc23)CC1` [MMV009127], the results for the activity at 2 µM in assay [1] and in assay [2] were 101% and 105%, respectively.

As for `Cc1cc(Nc2ccc3ccccc3c2)n2ncnc2n1` [MMV011099], the activity at 2 µM came to 99.9% in assay [1] and 99.8% in assay [2].

With `Cc1cc(Nc2ccc(Cl)cc2)n2nc(C(F)(F)F)nc2n1` [MMV011256], the values for the activity at 2 µM in assay [1] and in assay [2] were 111% and 109%, respectively.
